From publication PMC8047873, “An antibiotic-resistance conferring mutation in a neisserial porin: Structure, ion flux, and ampicillin binding” (Biochimica et Biophysica Acta. Biomembranes, 2021)

Molecular target: T1, PorB (wt PorB) (Neisseria meningitidis, UniProt M4GGR4)
T1 construct: outer membrane porin, homotrimer, purified in LDAO and inserted in planar lipid bilayers or liposomes; about 340 residues; expression as described previously
Test: single-channel electrophysiology, planar black lipid membrane, JULES idealization
Format: binding
Conditions: +80 mV, 1 M KCl, 10 mM HEPES, pH 7.5; DPhPC/cholesterol 9:1; pore block

T1 sequence (M4GGR4 entry or part of it): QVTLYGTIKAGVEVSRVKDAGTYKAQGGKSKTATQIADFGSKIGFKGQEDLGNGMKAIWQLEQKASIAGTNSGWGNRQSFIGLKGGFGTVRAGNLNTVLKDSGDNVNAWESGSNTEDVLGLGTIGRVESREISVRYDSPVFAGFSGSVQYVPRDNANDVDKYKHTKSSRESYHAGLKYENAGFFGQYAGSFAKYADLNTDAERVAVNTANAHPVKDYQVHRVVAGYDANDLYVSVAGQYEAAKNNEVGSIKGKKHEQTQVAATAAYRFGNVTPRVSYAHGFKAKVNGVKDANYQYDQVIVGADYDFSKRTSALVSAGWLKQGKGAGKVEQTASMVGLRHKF

CC1(C)S[C@@H]2[C@H](NC(=O)[C@H](N)c3ccccc3)C(=O)N2[C@H]1C(=O)O [ampicillin]
residence time τR: 35 ± 1 μs
